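Where inhibition never reached the appropriate level, the endpoint shown equals the highest concentration tested. Otherwise, values were interpolated linearly from a five-concentration, 48-hour dose response in 96-well plates. Abbreviation: GI50, concentration required for 50% inhibition of growth.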 Activity calls are given as the source filed them. Cut-off read from the data, not from the text of the source: active = GI50 up to about 1.1 µM and inactive = higher.
Columns and labels:
Assay in all cases: NCI tumour cell line growth inhibition, 48 h
UACC-257 = test system: UACC-257
A498 = test system: A498
Malme-3M = test system: Malme-3M
CCRF-CEM = test system: CCRF-CEM
DU-145 = test system: DU-145
SR = test system: SR
OVCAR-4 = test system: OVCAR-4
SK-MEL-5 = test system: SK-MEL-5
MDA-N = test system: MDA-N
SF-295 = test system: SF-295
U-251 = test system: U-251
SNB-19 = test system: SNB-19
NCI-H23 = test system: NCI-H23
OVCAR-8 = test system: OVCAR-8
LOX IMVI = test system: LOX IMVI
RXF 393 = test system: RXF 393
MDA-MB-435 = test system: MDA-MB-435
SK-OV-3 = test system: SK-OV-3
HL-60 = test system: HL-60
EKVX = test system: EKVX

Row | SMILES | GI50 (UACC-257) | GI50 (A498) | GI50 (Malme-3M) | GI50 (CCRF-CEM) | GI50 (DU-145) | GI50 (SR) | GI50 (OVCAR-4) | GI50 (SK-MEL-5) | GI50 (MDA-N) | GI50 (SF-295) | GI50 (U-251) | GI50 (SNB-19) | GI50 (NCI-H23) | GI50 (OVCAR-8) | GI50 (LOX IMVI) | GI50 (RXF 393) | GI50 (MDA-MB-435) | GI50 (SK-OV-3) | GI50 (HL-60) | GI50 (EKVX)
1 | S=c1[nH]nc(Cc2ccccc2)c(=S)[nH]1 | > 56.8 µM (inactive) | > 42.9 µM (inactive) | > 55.6 µM (inactive) | > 100 µM (inactive) | 61.9 µM (inactive) | > 65 µM (inactive) | > 60.7 µM (inactive) | 46.7 µM (inactive) | 98.6 µM (inactive) | > 59.3 µM (inactive) | > 55.1 µM (inactive) | > 87.9 µM (inactive) | > 64.4 µM (inactive) | > 61.2 µM (inactive) | > 52.7 µM (inactive) | 32.8 µM (inactive) | 63 µM (inactive) | > 81.5 µM (inactive) | > 54.8 µM (inactive) | 
2 | NC(=O)NC(=O)c1cccc(NC(=O)CCl)c1 | 1.19 µM (inactive) | 2.55 µM (inactive) | 5.22 µM (inactive) | 0.855 µM (active) | 1.36 µM (inactive) | 0.124 µM (active) | 2.19 µM (inactive) | 0.71 µM (active) | 0.385 µM (active) | 2.79 µM (inactive) | 0.975 µM (active) |  | 0.953 µM (active) | 2.22 µM (inactive) | 0.465 µM (active) | 1.04 µM (active) | 0.518 µM (active) | 1.45 µM (inactive) | 0.569 µM (active) | 7.01 µM (inactive)
3 | CCOC(=O)/C=C(\C(=O)OCC)n1ccc(=O)[nH]c1=O | 4.72 µM (inactive) | 19.1 µM (inactive) | 10.2 µM (inactive) | 2.16 µM (inactive) | 31.4 µM (inactive) | 10.4 µM (inactive) | 19.1 µM (inactive) | 24.7 µM (inactive) | 22.6 µM (inactive) | > 60.8 µM (inactive) | 17.4 µM (inactive) | 52.2 µM (inactive) | 16.7 µM (inactive) | 24 µM (inactive) | 12.8 µM (inactive) | 10.6 µM (inactive) | 17.4 µM (inactive) | 22.4 µM (inactive) | 2.44 µM (inactive) | 16 µM (inactive)
4 | O=C1C=CC(=O)c2c(O)c(N3CCN(c4ccccn4)CC3)cc(O)c21 | 4.07 µM (inactive) | 34.4 µM (inactive) | 0.553 µM (active) | 3.07 µM (inactive) | 12.6 µM (inactive) | 3.19 µM (inactive) | 11.6 µM (inactive) | 1.77 µM (inactive) | 2.41 µM (inactive) | 17.5 µM (inactive) | 5.64 µM (inactive) | 19.2 µM (inactive) | 3.4 µM (inactive) | 5.69 µM (inactive) | 3.95 µM (inactive) | 7.26 µM (inactive) | 0.851 µM (active) | 28.1 µM (inactive) | 3.01 µM (inactive) | 23.9 µM (inactive)
5 | O=C(O)c1c(-c2c3ccc(=O)cc-3oc3cc(O)ccc23)cc2ccccc2c1-c1ccccc1 | > 100 µM (inactive) | > 100 µM (inactive) | > 100 µM (inactive) | > 20.6 µM (inactive) | > 100 µM (inactive) | > 100 µM (inactive) | > 100 µM (inactive) | > 100 µM (inactive) | > 100 µM (inactive) | > 100 µM (inactive) | > 100 µM (inactive) | > 100 µM (inactive) | > 100 µM (inactive) | > 100 µM (inactive) | > 100 µM (inactive) | > 100 µM (inactive) | > 100 µM (inactive) | > 100 µM (inactive) | > 74.6 µM (inactive) | > 100 µM (inactive)
6 | O=C(c1ccccc1)N(CCCCNC(=O)C(F)(F)F)CCCNC(=O)C(F)(F)F | > 100 µM (inactive) | > 100 µM (inactive) | > 100 µM (inactive) | > 100 µM (inactive) | > 100 µM (inactive) | 0.94 µM (active) | > 100 µM (inactive) | > 100 µM (inactive) | > 100 µM (inactive) | > 100 µM (inactive) | > 100 µM (inactive) | > 100 µM (inactive) | > 100 µM (inactive) | > 100 µM (inactive) | > 100 µM (inactive) | > 100 µM (inactive) | > 100 µM (inactive) | > 100 µM (inactive) | > 100 µM (inactive) | > 100 µM (inactive)
7 | CC(SC(=S)N1CCOCC1)C(=O)Nc1nnc(-c2ccccc2)o1 (centres undefined) | > 100 µM (inactive) | > 100 µM (inactive) | > 100 µM (inactive) | 4.23 µM (inactive) | > 100 µM (inactive) | 21.8 µM (inactive) | > 100 µM (inactive) | 46.7 µM (inactive) | > 100 µM (inactive) | 88.5 µM (inactive) | > 100 µM (inactive) | > 100 µM (inactive) | > 100 µM (inactive) | > 100 µM (inactive) | 71.4 µM (inactive) | > 100 µM (inactive) | > 100 µM (inactive) | > 100 µM (inactive) | 5.05 µM (inactive) | > 100 µM (inactive)
8 | CCC/C(=N\NC(=S)N1CC2CCC(CC2)C1)c1ccccn1 | 0.0252 µM (active) | 0.708 µM (active) |  | 0.0186 µM (active) | 1.49 µM (inactive) | 0.0495 µM (active) | 0.395 µM (active) | 0.117 µM (active) | 0.685 µM (active) | 0.399 µM (active) | 0.181 µM (active) | 0.571 µM (active) | 0.422 µM (active) | 0.0877 µM (active) | 0.542 µM (active) | 0.51 µM (active) | 0.585 µM (active) | 0.927 µM (active) | 0.00957 µM (active) | 0.0434 µM (active)
9 | CC(=O)Nc1ncc(Sc2ccccc2C(=O)O)s1 | > 100 µM (inactive) | > 100 µM (inactive) |  | > 100 µM (inactive) | > 100 µM (inactive) | > 100 µM (inactive) |  | > 100 µM (inactive) | > 100 µM (inactive) | > 100 µM (inactive) | > 100 µM (inactive) | > 100 µM (inactive) | > 100 µM (inactive) | > 100 µM (inactive) | > 100 µM (inactive) | > 100 µM (inactive) | > 100 µM (inactive) |  | > 100 µM (inactive) | > 100 µM (inactive)
10 | CC(C)C(Br)CCC1=CCC(Br)(Br)C1 (centres undefined) | 14.5 µM (inactive) | 18.8 µM (inactive) | 14.6 µM (inactive) | 2.79 µM (inactive) | 18.4 µM (inactive) | 2.62 µM (inactive) | 9.1 µM (inactive) | 5.45 µM (inactive) | 2.94 µM (inactive) | 17 µM (inactive) | 15.4 µM (inactive) | 18 µM (inactive) | 9.1 µM (inactive) |  | 1.41 µM (inactive) | 15.2 µM (inactive) | 10.5 µM (inactive) | 13.1 µM (inactive) | 3.4 µM (inactive) | 17.9 µM (inactive)
11 | N#Cc1c(-c2ccccc2)cc(-c2ccc(Cl)cc2)[nH]c1=S |  | 22.6 µM (inactive) | 27 µM (inactive) | 26.4 µM (inactive) | 53.6 µM (inactive) | 23.8 µM (inactive) | 42.6 µM (inactive) | 17.7 µM (inactive) | 34.5 µM (inactive) | 27.1 µM (inactive) | 21.3 µM (inactive) | 32.8 µM (inactive) | 4.06 µM (inactive) | 43.6 µM (inactive) | 25.5 µM (inactive) | 34 µM (inactive) | 14.3 µM (inactive) | 27.4 µM (inactive) | 45.6 µM (inactive) | 30.4 µM (inactive)
12 | COC(=O)C1(C(=O)OC)N=C(C)OC1c1ccoc1 (centres undefined) | > 100 µM (inactive) | > 100 µM (inactive) |  | > 100 µM (inactive) | > 100 µM (inactive) | > 100 µM (inactive) | > 100 µM (inactive) | > 100 µM (inactive) | > 100 µM (inactive) | > 100 µM (inactive) | > 100 µM (inactive) | > 100 µM (inactive) | > 100 µM (inactive) | > 100 µM (inactive) | > 100 µM (inactive) | > 100 µM (inactive) | > 100 µM (inactive) | > 100 µM (inactive) | > 100 µM (inactive) | > 100 µM (inactive)
13 | O=C(CSc1nc2ccc(I)cc2c(=O)n1Cc1ccccc1)N/N=C/c1ccccc1 | 26.3 µM (inactive) | 15.2 µM (inactive) |  | 40.9 µM (inactive) | 39.3 µM (inactive) | 13.5 µM (inactive) | 34.2 µM (inactive) | 42.4 µM (inactive) | > 100 µM (inactive) | 11.4 µM (inactive) | 11.4 µM (inactive) | 17.5 µM (inactive) | 17.5 µM (inactive) | 17.9 µM (inactive) | 41.7 µM (inactive) | 8.13 µM (inactive) | > 100 µM (inactive) | 10.4 µM (inactive) | > 100 µM (inactive) | 26.6 µM (inactive)
14 | CSC(=S)N(C)C [CYSTOGON] | > 100 µM (inactive) | > 100 µM (inactive) | > 100 µM (inactive) | > 100 µM (inactive) | > 100 µM (inactive) | > 100 µM (inactive) |  | > 100 µM (inactive) | > 100 µM (inactive) | > 100 µM (inactive) | > 100 µM (inactive) | > 100 µM (inactive) | > 100 µM (inactive) | > 100 µM (inactive) | > 100 µM (inactive) | > 100 µM (inactive) | > 100 µM (inactive) | > 100 µM (inactive) | > 100 µM (inactive) | > 100 µM (inactive)
